Data set [1] is described as follows: ABTS radical scavenging assay. The class given is biochemical. The following applies: for ABTS scavenging activity: 1 mg/mL in methanol, 10 min, 734 nm; for radical scavenging effect (in words): 1 mg/mL, structure-activity discussion of the ABTS/DPPH results. As to the method: During the 2,2′-azino-bis(3-ethylbenzothiazoline-6-sulphonic acid) (ABTS) assay, the discoloration of the initial color could be detected at 734 nm.
The ABTS radical tests were measured according to a modified method of Arnao et al.. The test solutions were dissolved in methanol (1 mg/mL) at ambient temperature. The radical cation of ABTS (ABTS^+•) was created by mixing 7 mmol/L solution of ABTS and 2.4 mmol/L solution of potassium persulphate, which were set to react for 14 h in the dark at room temperature. The working solutions consisted of 2 mL of the stock solution diluted in 50 mL of methanol with an absorbance of […] units at 734 nm. Then, 1 mL of the ABTS working solution was allowed to react with the title compounds for 10 min, with a subsequent absorbance determination. The inhibition percentages were evaluated by applying the same formula as the DPPH assay (4). ABTSscavenging activity = Abscontrol − Abssample/Abscontrol × 100%(4) where Abscontrol is the absorbance of the ABTS radical in methanol, and Abssample is the absorbance of the ABTS radical solution mixed with the sample.
On the technique in general: Loss of DPPH colour is used to gauge radical scavenging.

The nature of data set [2]: MTT cell viability assay (cytotoxicity). The following applies: human, SH-SY5Y neuroblastoma cells, 1–500 μM, 24 h, MTT. The class given is cell-based, human. As to the method: (§1) The effects of the newly synthesized N-pyrrolyl-hydrazone derivatives on the cellular viability of neuronal SH-SY5Y cells were evaluated, and the corresponding IC50 values were calculated. In the current study, the cells were seeded at density 2 × 10^4 and were treated with the test compounds at concentrations 1–500 μM for 24 h.
(§2) Human neuroblastoma cell line SH-SY5Y was purchased from European Collection of Cell Cultures (ECACC, Salisbury, UK). SH-SY5Y cells were cultivated in an RPMI 1640 medium supplemented with 10% heat-inactivated FBS, 2 mM L-glutamine, and 1% antibiotics (penicillin/streptomycin). The cell line was incubated at 37 °C with 5% of CO2, and the culture’s medium was replaced with a time interval of 2–3 days.
(§3) The SH-SY5Y cells were plated for 24 h at 37 °C on 96-well plates at a density of 2 × 10^4 cells per well to confluence. After 24 h, the cells were treated with the compounds (1–500 μM). MTT assay was performed to measure the metabolic activity in living cells. The mitochondria succinate dehydrogenase system of living cells metabolized yellow-colored, water-soluble, tetrazolium salt MTT (3-(4,5-dimethylthiazol2-yl)-2,5-diphenyltetrazolium bromide to a purple insoluble formazan crystal. The cells were incubated with the test solutions for 24 h, the MTT solution (10 mg/mL in PBS) was then added to each well, and the mixture was incubated at 37 °C for 3 h. Thereafter, the MTT solution was carefully aspirated, and the obtained formazan crystals were dissolved by the addition of […] DMSO. The cell viability was determined by measuring the optical density −570–690 nm in a multiplate reader Synergy 2 (BioTek Instruments, Inc., Highland Park, Winooski, VT, USA).

Data set [3] concerns SH-SY5Y cells. Kind of data set: MTT cell viability assay (cytotoxicity). The data set is classed as cell-based, human. The protocol: as §1, §2, §3
Background: Formazan colour is commonly taken as a measure of viable cells.

Data set [4] has as its system SH-SY5Y cells. As to the kind of experiment: H2O2-induced oxidative stress model, protection by MTT. The class given is cell-based, human. The following applies: H2O2 1 mM, 15 min; for protective effect against H2O2-induced oxidative stress (in words): 1, 10, 20 µM pre-incubation 90 min; for protection at the lowest tested concentration (in words): 1 µM pre-incubation 90 min. As to the method: The cells were pre-incubated with the tested compounds at concentrations 1, 10, and 20 µM for 90 min. Melatonin was used as a reference compound because of its well-established neuroprotective effects in various in vitro and in vivo models. After 90 min pre-incubation with the test substances, SH-SY5Y cells were exposed to H2O2 (1 mM, 15 min), as described in the Materials and Methods section.
as §2
For the H2O2-induced oxidative stress model, SH-SY5Y cells were seeded in 96-well plates at a density of 3.5 × 10^4/well in 100 μL for 24 h. Afterwards, the cell medium was aspirated, and the cells were treated with different concentrations of tested compounds (1, 10, 20 µM) for 90 min; then, the SH-SY5Y cells were washed with phosphate-buffered saline (PBS) and were exposed to the oxidative stress (H2O2 1 mM in PBS, 15 min). The contents of all wells were changed with culture medium. After 24 h, the amount of attached viable cells was evaluated by MTT assay. Negative controls (cells without hydrogen peroxide treatment) were considered as 100% protection, and hydrogen-peroxide-treated cells as 0% protection.

Data set [5] can be described thus: DPPH radical scavenging assay. The data set is classed as biochemical. The following applies: 1 mg/mL in methanol, 30 min, 517 nm. The protocol:
The 1,1-diphenyl-2-picrylhydrazyl (DPPH) radical scavenging activity of the newly synthesized derivatives was determined at one concentration—1 mg/mL. Trolox was used as a standard.
The scavenging assay of the title compounds against DPPH radical was carried out by the widely employed protocol of Brand-Williams et al.. Briefly, a single concentration of 1 mg/mL for each synthesized compound in methanol was obtained. Subsequent addition of 1 mL of the methanol solution of DPPH (1 mmol/L) was performed. The reaction mixtures were incubated in the dark for 30 min. The absorbance was measured at 517 nm. Three measurements were carried out for each sample; 6-Hydroxy-2,5,7,8- tetramethylchroman-2-carboxylic acid (Trolox) was applied as a standard. The percentage inhibition of the tested samples was calculated by the following Formula (3):DPPHscavenging activity = Abscontrol − Abssample/Abscontrol × 100%(3) where Abscontrol is the absorbance of the DPPH radical in methanol, and Abssample is the absorbance of the DPPH radical solution mixed with the sample.

Here are results for 12 compounds from PMC10537553, “Synthesis, DFT Study, and In Vitro Evaluation of Antioxidant Properties and Cytotoxic and Cytoprotective Effects of New Hydrazones on SH-SY5Y Neuroblastoma Cell Lines” (Pharmaceuticals, 2023).

Structures are written as SMILES. Entries after “also recorded” stand apart in the source; their conditions may differ.

By IC50 is commonly meant the concentration that gives 50% inhibition. Usually melting point stands for the temperature, or range, at which the solid turns liquid.

For `CCOC(=O)c1cc(-c2ccc(Br)cc2)n(CC(=O)N/N=C/c2ccc(N(C)C)cc2)c1C` [7a, (E)-ethyl 5-(4-bromophenyl)-1-(2-(2-(4-(dimethylamino)benzylidene)hydrazinyl)-2-oxoethyl)-2-methyl-1H-pyrrole-3-carboxylate], the melting point was 211.4 to 213.6 °C. This compound also came in with an ABTS scavenging activity in data set [1] of 22%. In addition, in data set [2], the IC50 at 24 h amounted to 55.8 µM.
With `CCOC(=O)c1cc(-c2ccc(Br)cc2)n(CC(=O)N/N=C/c2ccc(Cl)cc2)c1C` [7b, (E)-ethyl 5-(4-bromophenyl)-1-(2-(2-(4-chlorobenzylidene)hydrazinyl)-2-oxoethyl)-2-methyl-1h-pyrrole-3-carboxylate], the melting point lay in the range of 229.4 to 231.2 °C. Further, in data set [1], the “radical scavenging effect (in words)” value was “negligible effect”. Moreover, the IC50 at 24 h in data set [2] was found to be 67.6 µM.
As for `CCOC(=O)c1cc(-c2ccc(Br)cc2)n(CC(=O)N/N=C/c2ccc([N+](=O)[O-])cc2)c1C` [7c, (E)-ethyl 5-(4-bromophenyl)-2-methyl-1-(2-(2-(4-nitrobenzylidene)hydrazinyl)-2-oxo-ethyl)-1H-pyrrole-3-carboxylate], the melting point lay within 245.9 to 247.2 °C. The IC50 at 24 h in data set [2] was above 500 µM. Moreover, the “cytotoxicity (in words)” value in the data set on SH-SY5Y cells [3] (24 h) is given as “non-toxic”. For the same compound, the “protective effect against H2O2-induced oxidative stress (in words)” value (from here on “protective effect”) in the data set with SH-SY5Y cells [4] was “most potent protection; also recorded: stronger protective effects”.
Consider `CCOC(=O)c1cc(-c2ccc(Br)cc2)n(CC(=O)N/N=C/c2cc(OC)c(O)c(OC)c2)c1C` [7d, (E)-ethyl 5-(4-bromophenyl)-1-(2-(2-(4-hydroxy-3,5-dimethoxybenzylidene)hydrazine-yl)-2-oxoethyl)-2-methyl-1H-pyrrole-3-carboxylate], for which the melting point was 191.9 to 194.4 °C. Moreover, the DPPH scavenging activity in data set [5] amounted to 24%. Besides, the ABTS scavenging activity in data set [1] is given as 83%. For the same compound, the IC50 at 24 h in data set [2] worked out at 99.6 µM. In the data set on SH-SY5Y cells [4], the “protection at the lowest tested concentration (in words)” value is reported as “statistically significant protection” and the “protective effect” value is given as “better protection in all tested concentrations than the reference compound melatonin; also recorded: stronger protective effects”.
For the compound `CCOC(=O)c1cc(-c2ccc(Br)cc2)n(CC(=O)N/N=C/c2ccc(OC)cc2OC)c1C` [7e, (E)-ethyl 5-(4-bromophenyl)-1-(2-(2-(2,4-dimethoxybenzylidene)hydrazinyl)-2-oxo-ethyl)-2-methyl-1H-pyrrole-3-carboxylate], the melting point lay in the range of 206 to 207.6 °C. Besides, in data set [1], the “radical scavenging effect (in words)” value is on record as “lack of radical scavenging effects”. Besides, the IC50 at 24 h in data set [2] came to 63.1 µM. The “protection at the lowest tested concentration (in words)” value in the data set with SH-SY5Y cells [4] is listed as “statistically significant protection”.
`CCOC(=O)c1cc(-c2ccc(Br)cc2)n(CCC(=O)N/N=C/c2ccc(N(C)C)cc2)c1C` [8a, (E)-ethyl 5-(4-bromophenyl)-1-(3-(2-(4-(dimethylamino)benzylidene)hydrazinyl)-3-oxopropyl)-2-methyl-1H-pyrrole-3-carboxylate] gave a melting point of 212 to 213.3 °C. Besides, in data set [1], the ABTS scavenging activity is given as 48%. Moreover, the IC50 at 24 h in data set [2] was 56.3 µM.
On to `CCOC(=O)c1cc(-c2ccc(Br)cc2)n(CCC(=O)N/N=C/c2ccc(Cl)cc2)c1C` [8b, (E)-ethyl 5-(4-bromophenyl)-1-(3-(2-(4-chlorobenzylidene)hydrazinyl)-3-oxopropyl)-2-methyl-1H-pyrrole-3-carboxylate], for which the melting point is 181.4 to 184.6 °C. Moreover, the IC50 at 24 h in data set [2] was found to be 57.4 µM.
For `CCOC(=O)c1cc(-c2ccc(Br)cc2)n(CCC(=O)N/N=C/c2ccc([N+](=O)[O-])cc2)c1C` [8c, (E)-ethyl 5-(4-bromophenyl)-2-methyl-1-(3-(2-(4-nitrobenzylidene)hydrazinyl)-3-oxopropyl)-1H-pyrrole-3-carboxylate] the same measures were 214.4 to 217.1 °C and 58.2 µM.
`CCOC(=O)c1cc(-c2ccc(Br)cc2)n(CCC(=O)N/N=C/c2cc(OC)c(O)c(OC)c2)c1C` [8d, (E)-ethyl 5-(4-bromophenyl)-1-(3-(2-(4-hydroxy-3,5-dimethoxybenzylidene) hydrazine-yl)-3-oxopropyl)-2-methyl-1H-pyrrole-3-carboxylate] showed a melting point of 196.6 to 197.6 °C. In addition, the DPPH scavenging activity in data set [5] was 19%. For the same compound, the ABTS scavenging activity in data set [1] is 89%. The IC50 at 24 h in data set [2] turned out to be 57.3 µM. In addition, in the data set with SH-SY5Y cells [3] (from IC50 values), the “toxicity relative to 7d (times higher)” value is recorded as 1.7 times.
For the compound `CCOC(=O)c1cc(-c2ccc(Br)cc2)n(CCC(=O)N/N=C/c2ccc(OC)cc2OC)c1C` [8e, (E)-ethyl 5-(4-bromophenyl)-1-(3-(2-(2,4-dimethoxybenzylidene)hydrazinyl)-3-oxopropyl)-2-methyl-1H-pyrrole-3-carboxylate], the melting point fell in the range of 170 to 171.9 °C. Further, the “radical scavenging effect (in words)” value in data set [1] was “lack of radical scavenging effects”. For the same compound, the IC50 at 24 h in data set [2] was found to be 91.1 µM. Moreover, in the data set with SH-SY5Y cells [4], the “protective effect” value is reported as “lower antioxidant protection; also recorded: lower than melatonin”.
Consider `COc1ccc2[nH]cc(CCNC(C)=O)c2c1` [Melatonin, reference compound], for which the IC50 at 24 h in data set [2] was above 500 µM. In addition, in the data set on SH-SY5Y cells [4], the “protective effect” value is on record as “dose-dependent protective effects”.
In data set [5], `Cc1c(C)c2c(c(C)c1O)CCC(C)(C(=O)O)O2` (stereo not drawn) [Trolox, 6-Hydroxy-2,5,7,8-tetramethylchroman-2-carboxylic acid, reference compound] gave a DPPH scavenging activity of 94%.
